Assay results reported in patent publication US7022737B2, “Manipulating nitrosative stress to kill pathologic microbes, pathologic helminths and pathologically proliferating cells or to upregulate nitrosative stress defenses” (Duke University, priority 1996, dated 2006).

Tests used:
mycoplasma = details: 250 mg three times a day
rat kidney gamma-GCS = biological target: T1, rat kidney gamma-GCS (Rattus norvegicus, UniProt P19468); test: Inhibition of mammalian gamma-GCS, protocol similar to E. coli enzyme; type: biochemical
T1 construct: highly purified rat kidney gamma-GCS; from tissue; host or cells: rat kidney
T1 sequence (P19468 whole entry): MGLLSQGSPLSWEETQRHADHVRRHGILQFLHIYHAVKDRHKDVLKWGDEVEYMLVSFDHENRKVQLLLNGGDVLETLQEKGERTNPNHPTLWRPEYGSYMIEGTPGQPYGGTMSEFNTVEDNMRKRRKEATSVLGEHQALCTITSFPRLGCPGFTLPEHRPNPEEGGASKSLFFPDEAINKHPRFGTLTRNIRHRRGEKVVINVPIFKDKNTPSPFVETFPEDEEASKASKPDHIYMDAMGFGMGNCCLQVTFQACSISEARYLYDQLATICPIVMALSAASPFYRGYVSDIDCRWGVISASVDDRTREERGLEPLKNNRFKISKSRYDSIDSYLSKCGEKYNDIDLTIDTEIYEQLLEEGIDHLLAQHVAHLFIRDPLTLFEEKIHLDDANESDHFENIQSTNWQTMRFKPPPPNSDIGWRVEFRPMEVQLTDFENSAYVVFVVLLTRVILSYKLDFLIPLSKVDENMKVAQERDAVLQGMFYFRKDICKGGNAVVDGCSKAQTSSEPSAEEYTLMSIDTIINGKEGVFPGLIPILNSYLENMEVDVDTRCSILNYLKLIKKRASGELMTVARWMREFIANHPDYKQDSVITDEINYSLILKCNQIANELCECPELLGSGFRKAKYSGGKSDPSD
T1 sequence (P48508 whole entry partner): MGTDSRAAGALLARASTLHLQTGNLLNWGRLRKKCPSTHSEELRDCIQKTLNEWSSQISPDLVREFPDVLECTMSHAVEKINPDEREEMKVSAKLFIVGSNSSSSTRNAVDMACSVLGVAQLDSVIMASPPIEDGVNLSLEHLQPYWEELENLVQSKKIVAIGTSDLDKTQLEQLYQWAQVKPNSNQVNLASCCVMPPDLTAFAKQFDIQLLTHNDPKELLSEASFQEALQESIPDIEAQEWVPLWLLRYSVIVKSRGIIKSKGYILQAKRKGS

Streptomycetes = test: Immunocompromised patient with Streptomycetes lesion; type: in vivo; details: 4 mmol/kg three times a day p.o. with trimethoprim and sulfamethoxazole, one month
Procedure: An immunocompromised patient recovering from bone marrow transplantation develops a lump in their cheek at a place previously scratched by a garden implement. A culture obtained from the lump is positive for Streptomycetes. The patient is given DL-α-amino-δ-butylthio valeric acid-SR-sulfoximine at a dose of 4 mmol/kg body weight three times a day p.o. The patient is also given trimethoprim (160 mg twice a day) and sulfamethoxazole (800 mg twice a day) for one month.

S. typhimurium = details: J. Gen. Microbiol. 72, 291–301 (1972); cited from earlier work
[1] = test system: metastatic malignant melanoma; test: Patient with metastatic malignant melanoma; type: in vivo; details: L-buthionine-S-sulfoximine 2 mmol/kg p.o. every 4 hours and hydroxyurea 10 mg/kg p.o., one week
Procedure: A person […] and a history of surgery five years previously to remove malignant melanotic nevi from their upper back and chest is found to have blood in their stool on routine physical examination. […] The patient is administered L-buthionine-S-sulfoximine (2 mmol/kg) p.o. every 4 hours for one week and is given 10 mg/kg of hydroxyurea p.o. 1 hour after every third dose of L-buthionine-S-sulfoximine. […] The patient shown no further evidence of metastases during a six month follow-up.

Actinomycetes israelii = test: Patient infected with Actinomycetes israelii; type: in vivo; details: 1 mg/kg four times per day i.v.
From the text: A patient infected with Actinomycetes israelii has a low-grade fever, non-productive cough, and occasional hemoptysis.

E. coli [2] = test: Patients with E. coli septicemia; type: in vivo
Procedure: A person with fever, mild hypotension, and moderate hematuria has blood and urine cultures that are positive for E. coli. They are given a diagnosis of E. coli septicemia and urinary tract infection. […]
A person with E. coli sepsis presents feeling nauseated and gravely ill. However, their blood pressure is stable. They receive a standard regimen of IV antibiotics, including ampicillin and gentamicin as well as the siderophore ferrioxamine B at a dose of 10 mg/kg.
A person with E. coli sepsis presents with a blood pressure of 80/50 mm Hg. Broad spectrum antibiotics are initiated including ampicillin and gentamicin. […] The patient then receives an intravenous dose of nitrosated chloramphenicol, 12.5 mg four times/day IV together with methylene blue IV at a dose of 5 mg/kg as well as fluid support.

Chlamydia trachomatous = test: Patients with Chlamydia cervicitis and vaginitis; type: in vivo; details: α-ethyl BSO 4 mmol/kg and nitrate ester of chloramphenicol 12.5 mg/kg, each four times a day p.o.
From the text: A person with a history of multiple sexual partners and recurrent urinary tract infections presents with cervicitis and vaginitis of four days duration. The patient complains of pain and vaginal discharge.

[3] = biological target: T2, E. coli gamma-glutamylcysteine synthetase (Escherichia coli, UniProt P0A6W9); test: Inactivation of E. coli gamma-GCS by homocysteine sulfoximines (preincubation with ATP, residual activity by coupled PK/LDH assay); type: biochemical; details: on an active isomer basis
T2 construct: made in house
T2 sequence (P0A6W9 whole entry): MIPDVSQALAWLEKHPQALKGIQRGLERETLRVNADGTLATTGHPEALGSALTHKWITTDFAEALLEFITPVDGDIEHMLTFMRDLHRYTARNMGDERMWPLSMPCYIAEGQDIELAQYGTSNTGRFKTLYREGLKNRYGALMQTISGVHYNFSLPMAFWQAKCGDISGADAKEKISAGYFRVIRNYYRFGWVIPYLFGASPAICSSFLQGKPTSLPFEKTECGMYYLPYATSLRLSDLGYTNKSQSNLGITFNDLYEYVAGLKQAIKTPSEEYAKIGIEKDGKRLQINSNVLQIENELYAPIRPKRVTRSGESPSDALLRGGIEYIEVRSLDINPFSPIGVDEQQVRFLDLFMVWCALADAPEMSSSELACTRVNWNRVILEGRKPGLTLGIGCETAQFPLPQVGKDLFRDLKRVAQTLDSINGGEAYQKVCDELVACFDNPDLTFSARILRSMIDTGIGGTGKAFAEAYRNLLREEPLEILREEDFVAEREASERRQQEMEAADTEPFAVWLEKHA
Procedure: E. coli gamma-GCS was isolated from bacterial cells engineered to overexpress the enzyme; the isolation procedure was similar to that used previously to isolate mammalian gamma-GCS. […] The enzyme was assayed in reaction mixtures (final volume=1.0 ml) containing: 150 mM Tris·HCl, pH 8.2, 100 mM KCl, 25 mM MgCl2, 7.5 mM ATP, 7.5 mM phosphoenolpyruvate, 0.3 mM EDTA, 10 mM L-glutamate, 10 mM L-α-aminobutyrate (an L-cysteine analog), 0.3 mM NADH, 5 IU pyruvate kinase, and 5 IU lactate dehydrogenase. Reaction was initiated by adding gamma-GCS; in control studies, L-α-aminobutyrate was omitted from the reaction mixture. In this assay, pyruvate kinase (PK) and lactate dehydrogenase (LDH) are added in excess to detect formation of ADP, one of the products of the gamma-GCS reaction. The relevant enzyme reactions are shown as equations 1–3 below. Oxidation of NADH to NAD^+ is followed and quantitated spectrophotometrically at 340 nm (1 μmol oxidation gives ΔOD=−6.2) and is directly proportional to product formation by gamma-GCS. [drawing 2]
Inhibition by homocysteine sulfoximines was carried out by preincubating the E. coli gamma-GCS with potential inhibitors in the presence of ATP and then removing aliquots of that mixture at specific times and assaying for residual activity using the assay procedure described above. The preincubation reaction mixtures contained (final volume=400 μl) the following: 210 mM Tris·HCl, pH 8.2, 142 mM KCl, 36 mM MgCl2, 10 mM ATP, 0.4 mM EDTA, various amounts of sulfoximine, and gamma-GCS. At intervals, 50 μl aliquots were removed and added to 1.0 ml assay reaction mixtures to determine residual activity spectrophotometrically. Results of a study indicate that E. coli gamma-GCS loses about 27% of its activity over 30 minutes in the absence of added inhibitors; this loss of activity represents an inherent instability in the enzyme when incubated under these reaction conditions in this particular experiment. […]

E. coli [4] = test: Patient with E. coli caused gastroenteritis with bloody diarrhea; type: in vivo
Procedure: A patient with E. coli caused gastroenteritis with bloody diarrhea is administered α-ethyl-L-buthionine-S-sulfoximine (hereinafter α-ethyl BSO) orally at a dose of 10 mmol/kg body weight four times a day.
A patient with E. coli caused gastroenteritis and bloody diarrhea is administered α-ethyl BSO orally at a dose of 10 mmol/kg body weight four times a day. In addition, the patient is given chloramphenicol orally at a dose of 12.5 mg/kg four times a day. Bloody diarrhea resolved in 36 hours.

rickettsia = type: in vivo; details: 4 mmol/kg four times a day p.o. with chloramphenicol 12.5 mg four times a day p.o.
athlete's foot = test: Patients with athlete's foot; type: in vivo; details: 50 mM added to miconazole cream
Procedure: A runner develops athlete's foot. […] They substitute a cream containing the same ingredients, with the exception that S-nitroso-N-acetyl cysteine has been added so as to be present at a concentration of 50 mM.
A marathon runner develops athlete's foot. They treat themself with a topical mixture of inorganic nitrite, acetic acid and thiol in a cream base.

E. coli [5] = details: chloramphenicol alone; cited from earlier work
oral thrush = test: Patients with oral thrush; type: in vivo; details: 2 cc of 50 mM, swish and spit, three times/day
Procedure: An immunocompromised person who is status-post recent chemotherapy develops oral thrush.
A person with leukemia develops oral thrush and is given 2 cc of 50 mM S-nitrosoglutathione, swish and spit, three times/day.
An immunocompromised person with HIV and a low CD4 count develops oral thrush. They are given 5 cc of a solution of 10 mM nitrate.

trypanosomes = test: Patient with trypanosome infection; type: in vivo; details: L-buthionine-S-sulfoximine 3 mmol/kg p.o. every 4 hours and S-nitrosoglutathione iv 10 mg/kg every 8 hours, one week
Procedure: A person presents with high fever, moderate lymphadenopathy and reports that they have lost 40 pounds in the last month, two months after returning from a safari in sub-Saharan Africa. On questioning, the patient reports having developed during the safari an ulcer on their forearm two days following a bite by a fly. […] The patient is hospitalized and given L-buthionine-S-sulfoximine at a dose of 3 mmol/kg p.o. every 4 hours for one week. In addition, the patient receives S-nitrosoglutathione iv at a dose of 10 mg/kg every 8 hours for one week.

[6] = test system: mixed flora and gram-negativerods; test: Diabetic patient with infected skin ulcer; type: in vivo; details: topical cream with S-nitrosoglutathione, oxidized glutathione and dinitrophenacyl glutathione
From the text: A patient with diabetes develops a skin ulcer on the lower aspect of their left leg. Cultures grow mixed flora and gram-negativerods. A topical cream is applied that contains S-nitrosoglutathione, oxidized glutathione and the glutathione S-conjugate dinitrophenacyl glutathione.

CC[C@H]1OC(=O)[C@H](C)[C@@H](O[C@H]2C[C@@](C)(OC)[C@@H](O)[C@H](C)O2)[C@H](C)[C@@H](O[C@@H]2O[C@H](C)C[C@H](N(C)C)[C@H]2O)[C@](C)(O)C[C@@H](C)C(=O)[C@H](C)[C@@H](O)[C@]1(C)O [erythromycin]
clinical outcome (mycoplasma): symptoms linger

CCCCS(=N)(=O)CCC(N)(CC)C(=O)O (racemic) [α-ethyl-DL-buthionine-SR-sulfoximine, α-Ethyl-D,L-buthionine-R,S-sulfoximine]
melting point: 203 to 205 °C | effectiveness as inhibitor relative to L-buthionine-S-sulfoximine (rat kidney gamma-GCS; highly purified rat kidney enzyme, DL,SR mixture): 0.025%

CCCCS(=N)(=O)CCCC(N)C(=O)O (racemic) [DL-α-amino-δ-butylthio valeric acid-SR-sulfoximine]
clinical outcome (Streptomycetes): lesion in patient's cheek resolves completely

c1nc[nH]n1 [1,2,4-trazole]
bacterial growth (S. typhimurium): inhibiting the growth of S. typhimurium

NC(=O)NO [hydroxyurea]
reduction in size of metastatic tumor [1]: 30%

serinyl-S-nitrosocysteinyl-gluatamine
clinical outcome (Actinomycetes israelii): symptoms resolve over three weeks

CCCCS(=N)(=O)CCC(N)(CC)C(=O)O [α-ethyl-L-buthionine-S-sulfoximine]
clinical outcome (E. coli [2]; resistant to conventional antibiotics, 4 mmol/kg four times a day p.o. plus hyperbaric 100% oxygen, ampicillin and gentamicin continued): symptoms resolve within four days | clinical outcome (E. coli [2]; septicemia and urinary tract infection, α-ethyl BSO 4 mmol/kg four times a day p.o., S-nitroso-gamma-methyl-L-homocysteine 50 μg/kg i.v., gentamicin): symptoms resolve and blood and urine cultures are negative for E. coli after two weeks | time to resolution of infection (Chlamydia trachomatous): 10 days | effectiveness as inhibitor relative to L-S-BSO [3]: about 20% | inhibitory activity relative to L-buthionine-S-sulfoximine (rat kidney gamma-GCS; expressed on the basis of the active isomer): about 0.1% | time to resolution of bloody diarrhea (E. coli [4]; 10 mmol/kg orally four times a day plus chloramphenicol 12.5 mg/kg orally four times a day): 36 h | clinical outcome (E. coli [4]; orally 10 mmol/kg four times a day): Bloody diarrhea resolved over four days | time until patient becomes well (rickettsia): 10 days

CC(=O)N[C@@H](CSN=O)C(=O)O [S-nitroso-N-acetyl cysteine]
clinical outcome (athlete's foot): symptoms improve over seven days

O=C(N[C@H](CO)[C@H](O)c1ccc([N+](=O)[O-])cc1)C(Cl)Cl [Chloramphenicol, chloramphenicol]
usual time to effect (E. coli [5]): normally has effect in three days

N[C@@H](CCC(=O)N[C@@H](CSN=O)C(=O)NCC(=O)O)C(=O)O [S-nitrosoglutathione]
clinical outcome (oral thrush): much improved in three days | clinical outcome (trypanosomes): blood smear is free of trypanosomes | clinical outcome [6]: culture of the ulcer becomes sterile over three days
